Experimental data from patent US10759813B2, “Neprilysin inhibitors” (THERAVANCE BIOPHARMA R&D IP, LLC, priority 2010, dated 2020).

biological target: human neprilysin (EC 3.4.24.11; NEP) (Homo sapiens (Human), UniProt P08473); test: In vitro enzyme inhibition assay at human NEP (fluorogenic peptide substrate); type: biochemical; conditions: pKi values at human NEP, recombinant human NEP
Method: In Vitro Assays for the Quantitation of Inhibitor Potencies at Human and Rat NEP, and Human ACE
The inhibitory activities of compounds at human and rat neprilysin (EC 3.4.24.11; NEP) and human angiotensin converting enzyme (ACE) were determined using in vitro assays as described below.
Recombinant human NEP and recombinant human ACE were obtained commercially (R&D Systems, Minneapolis, Minn., catalog numbers 1182-ZN and 929-ZN, respectively). The fluorogenic peptide substrate Mca-D-Arg-Arg-Leu-Dap-(Dnp)-OH (Medeiros et al. (1997) Braz. J. Med. Biol. Res. 30:1157-62; Anaspec, San Jose, Calif.) and Abz-Phe-Arg-Lys(Dnp)-Pro-OH (Araujo et al. (2000) Biochemistry 39:8519-8525; Bachem, Torrance, Calif.) were used in the NEP and ACE assays respectively.
The assays were performed in 384-well white opaque plates at 37° C. using the fluorogenic peptide substrates at a concentration of 10 μM in Assay Buffer (NEP: 50 mM HEPES, pH 7.5, 100 mM NaCl, 0.01% polyethylene glycol sorbitan monolaurate (Tween-20), 10 μM ZnSO4; ACE: 50 mM HEPES, pH 7.5, 100 mM NaCl, 0.01% Tween-20, 1 μM ZnSO4).
Test compounds were assayed over the range of concentrations from 10 μM to pM. Test compounds were added to the enzymes and incubated for 30 minute at 37° C. prior to initiating the reaction by the addition of substrate. Reactions were terminated after 20 minutes of incubation at 37° C. by the addition of glacial acetic acid to a final concentration of 3.6% (v/v).
Plates were read on a fluorometer with excitation and emission wavelengths set to 320 nm and 405 nm, respectively. Inhibition constants were obtained by nonlinear regression of the data using the equation (GraphPad Software, Inc., San Diego, Calif.): v=v0/[1+(I/K′)] where v is the reaction rate, v0 is the uninhibited reaction rate, I is the inhibitor concentration and K′ is the apparent inhibition constant.
Compounds of the invention were tested in this assay and found to have pKi values at human NEP as follows.

Chain of human neprilysin (EC 3.4.24.11; NEP) (P08473 52-750): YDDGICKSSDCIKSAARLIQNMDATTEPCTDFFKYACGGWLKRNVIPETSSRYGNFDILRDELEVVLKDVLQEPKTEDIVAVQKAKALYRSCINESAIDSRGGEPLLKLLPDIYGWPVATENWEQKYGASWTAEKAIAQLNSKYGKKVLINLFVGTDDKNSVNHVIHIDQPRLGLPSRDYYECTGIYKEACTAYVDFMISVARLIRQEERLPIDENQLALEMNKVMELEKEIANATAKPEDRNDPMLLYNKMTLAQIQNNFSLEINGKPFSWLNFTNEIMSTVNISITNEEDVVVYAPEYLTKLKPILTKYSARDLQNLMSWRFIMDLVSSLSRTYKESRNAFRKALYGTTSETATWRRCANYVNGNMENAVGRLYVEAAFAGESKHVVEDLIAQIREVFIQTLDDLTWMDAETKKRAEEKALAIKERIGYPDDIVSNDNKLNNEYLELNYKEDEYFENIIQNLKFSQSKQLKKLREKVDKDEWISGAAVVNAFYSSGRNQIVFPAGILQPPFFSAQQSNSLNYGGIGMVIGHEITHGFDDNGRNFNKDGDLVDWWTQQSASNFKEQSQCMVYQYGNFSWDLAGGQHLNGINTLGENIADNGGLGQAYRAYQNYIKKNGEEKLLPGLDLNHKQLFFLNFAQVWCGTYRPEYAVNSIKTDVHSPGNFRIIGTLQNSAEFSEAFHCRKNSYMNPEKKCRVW

| Ki [nM] | pKi | Structure (SMILES) |
| --- | --- | --- |
| 12.6 to 100 |  | Cc1nc2ccc(C(=O)N[C@H](Cc3ccc(-c4ccccc4)cc3)CC(O)C(=O)O)cc2o1 (stereo partly drawn) [Example 11-8, (R)-5-Biphenyl-4-yl-2-hydroxy-4-[(2-methyl-benzooxazole-6-carbonyl)-amino]-pentanoic acid] |
| 12.6 to 100 |  | O=C(O)c1ccc(C(=O)N[C@H](Cc2ccc(-c3ccccc3)cc2)CC(O)C(=O)O)nn1 (stereo partly drawn) [Example 13-3, 6-((R)-1-Biphenyl-4-ylmethyl-3-carboxy-3-hydroxypropylcarbamoyl)-pyridazine-3-carboxylic acid] |
| 12.6 to 100 |  | CCC(=O)Nc1cc(C(=O)N[C@H](Cc2ccc(-c3ccccc3)cc2)CC(O)C(=O)O)[nH]n1 (stereo partly drawn) [Example 15-91, (R)-5-Biphenyl-4-yl-2-hydroxy-4-[(5-propionylamino-2H-pyrazole-3-carbonyl)-amino]-pentanoic acid] |
| 1.26 to 10 |  | Cn1nc(C(=O)N[C@H](Cc2ccc(-c3ccccc3)cc2)CC(O)C(=O)O)cc1-c1ccccc1 (stereo partly drawn) [Example 15-34, (R)-5-Biphenyl-4-yl-2-hydroxy-4-[(1-methyl-5-phenyl-1H-pyrazole-3-carbonyl)amino]-pentanoic acid] |
| 1.26 to 10 |  | CC(=O)Nc1cccc(-c2cc(C(=O)N[C@H](Cc3ccc(-c4ccccc4)cc3)CC(O)C(=O)O)n[nH]2)c1 (stereo partly drawn) [Example 15-31, (R)-4-{[5-(3-Acetylamino-phenyl)-1H-pyrazole-3-carbonyl]amino}-5-biphenyl-4-yl-2-hydroxypentanoic acid] |
|  | ≥9.0 | O=C(N[C@H](Cc1ccc(-c2ccccc2)cc1Cl)C[C@@H](O)C(=O)O)c1cnn[nH]1 [Example 20-2, (2R,4R)-5-(3-Chlorobiphenyl-4-yl)-2-hydroxy-4-[(3H-[1,2,3]triazole-4-carbonyl)-amino]-pentanoic acid] |
|  | ≥9.0 | COc1ccccc1-c1ccc(C[C@@H](C[C@H](O)C(=O)O)NC(=O)c2ccc3nnn(O)c3c2)cc1 [Example 23-3, (2S,4S)-2-Hydroxy-4-[(3-hydroxy-3H-benzotriazole-5-carbonyl)-amino]-5-(2′-methoxy-biphenyl-4-yl)-pentanoic acid] |
|  | ≥9.0 | O=C(N[C@H](Cc1ccc(-c2ccccc2)cc1)C[C@@H](O)C(=O)O)c1cc(-c2ccccc2O)on1 [Example 12-21, (2R,4R)-5-Biphenyl-4-yl-2-hydroxy-4-{[5-(2-hydroxy-phenyl)-isoxazole-3-carbonyl]-amino}-pentanoic acid] |
|  | ≥9.0 | O=C(N[C@H](Cc1ccc(-c2ccccc2)cc1)C[C@@H](O)C(=O)O)c1cc(-c2ccccc2Cl)n[nH]1 [Example 15-84, (2R,4R)-5-Biphenyl-4-yl-4-{[5-(2-chlorophenyl)-2H-pyrazole-3-carbonyl]amino}-2-hydroxy-pentanoic acid] |
| 12.6 to 100 |  | CC(=O)c1cc(C(=O)N[C@H](Cc2ccc(-c3ccccc3)cc2)C[C@@H](O)C(N)=O)[nH]n1 [Example 15-108, 5-Acetyl-2H-pyrazole-3-carboxylic acid ((1R,3R)-1-biphenyl-4-ylmethyl-3-carbamoyl-3-hydroxypropyl)amide] |
|  | ≥9.0 | O=C(N[C@H](Cc1ccc(-c2cccc(Cl)c2)cc1)C[C@@H](O)C(=O)O)c1n[nH]c(Cl)n1 [Example 18-46, (2R,4R)-5-(3′-Chlorobiphenyl-4-yl)-4-[(5-chloro-1H-[1,2,4]triazole-3-carbonyl)-amino]-2-hydroxy-pentanoic acid] |
| 12.6 to 100 |  | O=C(O)c1ccc(C(=O)N[C@H](Cc2ccc(-c3ccccc3)cc2)CC(O)C(=O)O)nc1 (stereo partly drawn) [Example 13-7, 6-((R)-1-Biphenyl-4-ylmethyl-3-carboxy-3-hydroxypropylcarbamoyl)nicotinic acid] |
| 1.26 to 10 |  | C[C@@H](O)c1cc(C(=O)N[C@H](Cc2ccc(-c3ccccc3)cc2)C[C@@H](O)C(=O)O)[nH]n1 [Example 15-110, (2R,4R)-5-Biphenyl-4-yl-2-hydroxy-4-{[5-((R)-1-hydroxyethyl)-2H-pyrazole-3-carbonyl]amino}pentanoic acid] |
|  | ≥9.0 | CC(=O)c1cc(C(=O)N[C@H](Cc2ccc(-c3ccccc3)cc2)C[C@@H](O)C(=O)O)[nH]n1 [Example 1-B, (2R,4R)-4-[(5-Acetyl-2H-pyrazole-3-carbonyl)amino]-5-biphenyl-4-yl-2-hydroxypentanoic Acid] |
|  | ≥9.0 | O=C(N[C@H](Cc1ccc(-c2ccccc2)cc1)C[C@@H](O)C(=O)O)c1cc(NC(=O)c2ccccc2Cl)n[nH]1 [Example 15-96, (2R,4R)-5-Biphenyl-4-yl-4-{[5-(2-chlorobenzoylamino)-2H-pyrazole-3-carbonyl]-amino}-2-hydroxy-pentanoic acid] |
| 1.26 to 10 |  | O=C(N[C@H](Cc1ccc(-c2ccccc2)cc1)CC(O)C(=O)O)c1cc(C(=O)O)n(Cc2ccc(Cl)cc2F)n1 (stereo partly drawn) [Example 15-13, 5-((R)-1-Biphenyl-4-ylmethyl-3-carboxy-3-hydroxy-propylcarbamoyl)-2-(4-chloro-2-fluorobenzyl)-2H-pyrazole-3-carboxylic acid] |
| 1.26 to 10 |  | COc1ccc(-c2cc(C(=O)N[C@H](Cc3ccc(-c4ccccc4)cc3)C[C@@H](O)C(=O)O)no2)cc1 [Example 12-20, (2R,4R)-5-Biphenyl-4-yl-2-hydroxy-4-{[5-(4-methoxy-phenyl)-isoxazole-3-carbonyl]-amino}-pentanoic acid] |
|  | ≥9.0 | O=C(N[C@H](Cc1ccc(-c2ccccc2)cc1)C[C@@H](O)C(=O)O)c1cc(C(=O)N2CCCC2)n[nH]1 [Example 5-B, (2R,4R)-5-Biphenyl-4-yl-2-hydroxy-4-{[5-(pyrrolidine-1-carbonyl)-2H-pyrazole-3-carbonyl]-amino}pentanoic Acid] |
| 1.26 to 10 |  | O=C(N[C@H](Cc1ccc(-c2ccccc2)cc1)C[C@@H](O)C(=O)O)c1cc(-c2ccc(Cl)cc2)on1 [Example 12-17, (2R,4R)-5-Biphenyl-4-yl-4-{[5-(4-chlorophenyl)-isoxazole-3-carbonyl]-amino}-2-hydroxy-pentanoic acid] |
|  | ≥9.0 | CC(C)c1cc(C(=O)N[C@H](Cc2ccc(-c3cccc(Cl)c3)cc2)C[C@@H](O)C(=O)O)on1 [Example 18-10, (2R,4R)-5-(3′-Chloro-biphenyl-4-yl)-2-hydroxy-4-[(3-isopropyl-isoxazole-5-carbonyl)-amino]-pentanoic acid] |
| 12.6 to 100 |  | Cn1cc(-c2cc(C(=O)N[C@H](Cc3ccc(-c4ccccc4)cc3)CC(O)C(=O)O)n[nH]2)cn1 (stereo partly drawn) [Example 15-23, (R)-5-Biphenyl-4-yl-2-hydroxy-4-[(1′-methyl-2H, 1′H-[3,4′]bipyrazolyl-5-carbonyl)amino]-pentanoic acid] |
| 1.26 to 10 |  | O=C(N[C@H](Cc1ccc(-c2ccccc2)cc1)CC(O)C(=O)O)c1cc(C(=O)O)n(Cc2cccc(Cl)c2)n1 (stereo partly drawn) [Example 15-7, 5-((R)-1-Biphenyl-4-ylmethyl-3-carboxy-3-hydroxypropylcarbamoyl)-2-(3-chlorobenzyl)-2H-pyrazole-3-carboxylic acid] |
| 1.26 to 10 |  | O=C(N[C@H](Cc1ccc(-c2ccccc2)cc1)CC(O)C(=O)O)c1cc(-c2ccc(F)cc2)n[nH]1 (stereo partly drawn) [Example 15-82, (R)-5-Biphenyl-4-yl-4-{[5-(4-fluorophenyl)-2H-pyrazole-3-carbonyl]amino}-2-hydroxy-pentanoic acid] |
|  | ≥9.0 | O=C(N[C@H](Cc1ccc(-c2cccc(Cl)c2)cc1)C[C@@H](O)C(=O)O)c1nn(-c2ccc(F)cc2)c(=O)[nH]1 [Example 18-44, (2R,4R)-5-(3′-Chloro-biphenyl-4-yl)-4-{[1-(4-fluoro-phenyl)-5-oxo-4,5-dihydro-1H-[1,2,4]triazole-3-carbonyl]-amino}-2-hydroxy-pentanoic acid] |
|  | ≥9.0 | O=C(N[C@H](Cc1ccc(-c2cccc(Cl)c2)cc1)C[C@@H](O)C(=O)O)c1cc(=O)n(-c2ccccc2)[nH]1 [Example 18-41, (2R,4R)-5-(3′-Chlorobiphenyl-4-yl)-2-hydroxy-4-[(5-oxo-1-phenyl-2,5-dihydro-1H-pyrazole-3-carbonyl)-amino]-pentanoic acid] |
|  | ≥9.0 | COc1ccc(OC)c(-c2cc(C(=O)N[C@H](Cc3ccc(-c4ccccc4)cc3)C[C@@H](O)C(=O)O)[nH]n2)c1 [Example 15-80, (2R,4R)-5-Biphenyl-4-yl-4-{[5-(2,5-dimethoxy-phenyl)-2H-pyrazole-3-carbonyl]-amino}-2-hydroxy-pentanoic acid] |
| 12.6 to 100 |  | COCC(=O)Nc1cc(C(=O)N[C@H](Cc2ccc(-c3ccccc3)cc2)CC(O)C(=O)O)[nH]n1 (stereo partly drawn) [Example 15-94, (R)-5-Biphenyl-4-yl-2-hydroxy-4-{[5-(2-methoxy-acetylamino)-2H-pyrazole-3-carbonyl]-amino}-pentanoic acid] |
| 1.26 to 10 |  | O=C(N[C@H](Cc1ccc(-c2ccccc2)cc1)CC(O)C(=O)O)c1cc(-c2ccccc2Cl)[nH]n1 (stereo partly drawn) [Example 15-24, (R)-5-Biphenyl-4-yl-4-{[5-(2-chlorophenyl)-1H-pyrazole-3-carbonyl]amino}-2-hydroxy-pentanoic acid] |
